# Tests used:
# [1] = parameters: method as in PMID 23555254, PMID 17706876, PMID 6409639; details: cited from earlier work
# clinical strains of HIV = test system: clinical strains of HIV; parameters: method as in PMID 23555254, PMID 17706876; details: cited from earlier work
# [2] = test system: HIV-1 (Gag) gene expression; details: HeLa rtTA-HIV-ΔMls cells; read-out: IC90, HIV-1 (Gag) gene expression (digoxin, published); cited from earlier work
# HeLa rtTA-HIV-ΔMls cells = experiment: In vitro therapeutic index (CC20/IC50) in HeLa rtTA-HIV-ΔMls cells; type: cell-based, human
# Text: Without median toxic dose (TD50) and half-maximal effective concentration (EC50) data available to calculate TIs (in vivo) from HIV patients treated with CSs, we determined the following TIs for each cell type treated with a CS (summarized in Supplementary Table S1): in vitro TIs from HeLa rtTA-HIV-ΔMls cells using CC20/IC50 (instead of CC50/IC50), in vitro TIs from 24ST1NLESG cells using CC50/IC50, and ex vivo TIs from HIV-infected PBMCs using CC50/IC50 (at day 14 of culture approximated from available cell viability trends for CC50s of Supplementary Fig. S13 and inferred near maximal IC50s).
# Supplementary Table S1. Comparison of the in vitro (IVTI) and ex vivo therapeutic indices (EVTIs) of CSs and their impact on the expression of essential HIV-1 proteins.
# Notes: data for CC20, CC50, and IC50s for each drug/compound were estimated from dose response curves in Figures 1-2, Supplementary Table S1, Supplementary Figures S2, S5, and S13, and Wong et al.
# ">" means the estimate has not been accurately determined but is greater than the highest concentration […]
# "( )" indicates preliminary data that was not shown. aCC20 instead of CC50 was estimated from dose response curves and used for calculation of IVTIs. bCells were treated at ~IC90of a CS.
# (1 picture or pasted object on this page, not shown here)
# [3] = test system: nascent protein synthesis; type: cell-based, human; details: 220 nM
# Procedure: To monitor HIV-1 gene expression or replication, Gag release into cell culture supernatants were assayed by ELISA using a p24^CA antigen capture assay kit (AIDS & Cancer Virus Program, NCI-Frederick, Frederick, MD USA). Media harvested from HIV clinical isolates were diluted ~10 fold (or as necessary) prior to performing this assay. For analysis of HIV-1 and SR protein expression (and phosphorylation states with calf intestinal alkaline phosphatase treatments), cells were lysed and analyzed by western blot as previously outlined. Phosphatase inhibitors (e.g. 10 mM sodium fluoride, 2 mM sodium orthovanadate) were added to solutions requiring phospho protein analyses. […] Activation of MAPKs was determined by western blot quantitation and calculation of phospho/total protein levels. […] Stain-Free™ gels were casted and proteins were detected as described in 10% TGX-Stain-Free FastCast Acrylamide Kit from Bio-Rad (#161-0183). […] In representative gel/blot sets, samples were electrophoresed from the same experiment as controls, resolved simultaneously on identically cast gel(s), transferred to same PVDF (by either wet electrophoretic or by Bio-Rad Trans-Blot® Turbo Transfer System), and detected at same time. […] Cells were subsequently washed, whole cell lysates prepared, and proteins quantified by western blot using an anti-puromycin antibody (EMD Millipore, #anti-12D10) as described above. […]
structure (smiles),measurement,setting,value
C[C@H]1O[C@@H](O[C@H]2[C@@H](O)C[C@H](O[C@H]3[C@@H](O)C[C@H](O[C@H]4CC[C@@]5(C)[C@H](CC[C@@H]6[C@@H]5CC[C@]5(C)[C@@H](C7=CC(=O)OC7)CC[C@]65O)C4)O[C@@H]3C)O[C@@H]2C)C[C@H](O)[C@@H]1O [Digitoxin],recommended serum concentration in patients treated for heart conditions,[1],20 to 34 nM
C[C@H]1O[C@@H](O[C@H]2[C@@H](O)C[C@H](O[C@H]3[C@@H](O)C[C@H](O[C@H]4CC[C@@]5(C)[C@H](CC[C@@H]6[C@@H]5C[C@@H](O)[C@]5(C)[C@@H](C7=CC(=O)OC7)CC[C@]65O)C4)O[C@@H]3C)O[C@@H]2C)C[C@H](O)[C@@H]1O [Digoxin],"effective ex vivo concentration, fold below serum concentration of patients treated for heart conditions (digoxin)",clinical strains of HIV,2–6 fold
same,IC90,[2],100 nM
C[C@@H]1O[C@@H](O[C@H]2C[C@@H](O)[C@]3(CO)[C@H]4[C@H](O)C[C@]5(C)[C@@H](C6=CC(=O)OC6)CC[C@]5(O)[C@@H]4CC[C@]3(O)C2)[C@H](O)[C@H](O)[C@H]1O [Ouabain],better in vitro TI than digoxin,HeLa rtTA-HIV-ΔMls cells,1.2 fold
"COc1ccc(C[C@H]2NC[C@H](O)[C@H]2OC(C)=O)cc1 [anisomycin, Anisomycin]",effect on nascent protein synthesis,[3],little to no effect
